Test results as given in US4743585A (Warner-Lambert Company, priority 1986, dated 1988).

Each compound was assayed against T1, renin (Homo sapiens, UniProt P00797) (assay: in vitro renin inhibitory activity, standard radioimmunoassay for angiotensin I).
T1 sequence (P00797 67-406): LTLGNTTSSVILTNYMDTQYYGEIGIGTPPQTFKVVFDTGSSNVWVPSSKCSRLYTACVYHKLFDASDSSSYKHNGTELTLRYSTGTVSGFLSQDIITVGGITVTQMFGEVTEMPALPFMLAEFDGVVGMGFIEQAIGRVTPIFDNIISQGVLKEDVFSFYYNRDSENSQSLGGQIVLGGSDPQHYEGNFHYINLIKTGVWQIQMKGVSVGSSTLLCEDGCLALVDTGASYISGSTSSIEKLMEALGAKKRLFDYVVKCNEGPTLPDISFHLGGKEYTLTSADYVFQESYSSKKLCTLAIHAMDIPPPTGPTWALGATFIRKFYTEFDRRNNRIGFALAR
Assay type: biochemical
Protocol: The effectiveness of the aforementioned compounds is determined by a test for in vitro renin inhibitory activity. This activity is determined by a standard radioimmunoassay for angiotensin I. In this assay the enzyme, renin, incubated for two hours at 37° in the presence of a substrate, angiotensinogen, generates the product, angiotensin I. Test compounds are added to the incubation mixture.

Point of comparison: `CC(C)C[C@H](NC(=O)[C@H](C)NC(=O)C[C@H](O)[C@H](CC(C)C)NC(=O)[C@H](Cc1ccccc1)NC[C@H](Cc1ccccc1)NC(=O)OC(C)(C)C)[C@@H](O)CC(=O)NCc1ccccc1` [Example 59, BOC-PHE[CH2 NH]PHE-STA-ALA-STA-NHCH2 Ph], IC50 5.6 µM. Against it:
- CC(C)C[C@@H](CN(Cc1ccccc1)C(=O)OCc1ccccc1)NC(=O)C[C@H](O)[C@H](CC(C)C)NC(=O)[C@@H](NC(=O)[C@H](Cc1ccccc1)NC(=O)OC(C)(C)C)C(C)C [Example 56, l-valinamide.N-[(1,1-dimethylethoxy)carbonyl]-L-phenylalanyl-N-[2-hydroxy-4-[[3-methyl-1-[[[(phenylmethoxy)carbonyl](phenylmethyl)amino]methyl]butyl]amino]-1-(2-methylpropyl)-4-oxobutyl]-, [2S-[1R*,2R*,4R*)]]-] — 2.9-fold higher, 16 µM
- CC(C)CC(=O)N[C@@H](Cc1ccccc1)C(=O)N[C@@H](Cc1c[nH]cn1)C(=O)N[C@@H](CC(C)C)[C@@H](O)CC(=O)N[C@@H](CC(C)C)CN(Cc1ccccc1)C(=O)OCc1ccccc1 [Example 57, L-histidinamide. N-(3-methyl-1-oxobutyl)-L-phenylalanyl-N-[2-hydroxy-4-[[3-methyl-1-[[[(phenylmethoxy)carbonyl](phenylmethyl)amino]methyl]butyl]amino]-1-(2-methylpropyl)-4-oxobutyl]-, [1S-[1R*,2R*,4(R*)]]-] — 1.9-fold lower, 3 µM
- CC(C)CC(=O)N[C@@H](Cc1ccccc1)C(=O)N[C@@H](Cc1c[nH]cn1)C(=O)N[C@@H](CC(C)C)[C@@H](O)CC(=O)N[C@H](CNCc1ccccc1)CC(C)C [Example 58, IVA-PHE-HIS-STA-LEU[CH2 NH]CH2 Ph] — 2.9-fold lower, 1.9 µM
- Cc1c(C)c(C)c(C[C@H](CN[C@@H](Cc2c[nH]cn2)C(=O)N[C@@H](CC(C)C)[C@@H](O)CC(=O)N[C@@H](CC(C)C)C(=O)NC2CCN(Cc3ccccc3)CC2)NC(=O)OC(C)(C)C)c(C)c1C [Example 61] — 5.4-fold higher, 30 µM
- CC(C)C[C@H](NC(=O)C[C@H](O)[C@H](CC(C)C)NC(=O)[C@H](Cc1cncn1COCc1ccccc1)NC[C@H](Cc1ccccc1)NC(=O)OC(C)(C)C)C(=O)NCc1ccccc1 [Example 62, BOC-PHE[CH2 NH]HIS(BOM)-STA-LEU-NHCH2 Ph] — 2.9-fold higher, 16 µM
- CC(C)CC(=O)N[C@@H](Cc1ccccc1)C(=O)N[C@@H](Cc1c[nH]cn1)C(=O)N[C@H](CN[C@@H](CC(C)C)C(=O)NCc1ccccc1)CC(C)C [Example 65, L-histidinamide, N-(3-methyl-1-oxobutyl)-L-phenylalanyl-N-[3-methyl-1-[[[3-methyl-1-[[(phenylmethyl)amino]carbonyl]butyl]amino]methyl]butyl], [S-(R*,R*)]] — within 1.5-fold, 7.7 µM
- CC(C)CC(=O)N[C@@H](Cc1ccccc1)C(=O)N[C@H](CN[C@@H](CC(C)C)[C@@H](O)CC(=O)N[C@@H](CC(C)C)C(=O)NCc1ccccc1)Cc1c[nH]cn1 [Example 66, 3,8,11,14-Tetraazaoctadecanamide, 6-hydroxy-10-(1H-imidazol-4-ylmethyl)-17-methyl-2,7-bis(2-methylpropyl)-4,12,15-triazo-N,13-bis(phenylmethyl)-, [2S-(2R*,6R*,7R*,10R*,13R*)]] — 1.6-fold lower, 3.5 µM
- CC(C)CC(=O)N[C@@H](Cc1ccccc1)C(=O)N[C@@H](Cc1c[nH]cn1)C(=O)N[C@H](CN[C@@H](CC(C)C)C(=O)NCc1ccccc1)CC1CCCCC1 [Example 70, L-histidinamide, N-(3-methyl-1-oxobutyl)-L-phenylalanyl-N-[1-cyclohexylmethyl]-2-[[3-methyl-1-[[(phenylmethyl)amino]carbonyl]butyl]amino]ethyl]-, [S-(R*,R*)]] — 20-fold lower, 0.28 µM
- CC[C@H](C)[C@H](NC[C@@H](NC(=O)CC(C)C)[C@@H](C)CC)C(=O)N[C@@H](CC(C)C)[C@@H](O)CC(=O)N[C@@H](CC(C)C)C(=O)NCc1ccccc1 [Example 73, 3,8,11,14-tetraazaoctadecanamide, 6-hydroxy-17-methyl-10,13-bis(1-methylpropyl)-2,7-bis(2-methylpropyl)-4,9,15-trioxo-N-(phenylmethyl)] — 5.4-fold higher, 30 µM
- CC(C)CC(COC(C(=O)NC(CC(C)C)C(O)CC(=O)NC(C)C(=O)NC(CC(C)C)C(O)CC(=O)NCc1ccccc1)c1ccccc1)NC(=O)OC(C)(C)C (centres unmarked) [Example 75, 10,18-dihydroxy-14-methyl-3,9,17-tris-(2-methylpropyl)-7,12,15,20-tetraoxo-6,22-diphenyl-5-oxa-2,8,13,16,21-pentaazadocosanoic acid, 1,1-dimethylethyl ester] — 3.6-fold higher, 20 µM
- CC(C)CC(=O)N[C@@H](Cc1ccccc1)C(=O)N[C@@H](Cc1c[nH]cn1)C(=O)NC(CC(C)C)C(O)CC(CC(C)C)C(=O)NCc1ccccc1 (stereo partly drawn) [Example 76, L-Histidinamide, N-(3-methyl-1-oxobutyl)-L-phenylalanyl-N-[2-hydroxy-6-methyl-1-(2-methylpropyl)-4-[[(phenylmethyl)amino]carbonyl]heptyl]] — 7.6-fold lower, 0.74 µM
- CCC(C)CNC(=O)CCC(O)[C@H](CC1CCCCC1)NC(=O)[C@H](Cc1c[nH]cn1)NC(=O)[C@H](Cc1cccc2ccccc12)NC(=O)OCc1ccccc1 (some centres unmarked) [Example 77] — 3.5-fold lower, 1.6 µM
- CC(C)CC(=O)N[C@@H](Cc1ccccc1)C(=O)N[C@@H](Cc1c[nH]cn1)C(=O)N[C@@H](CC1CCCCC1)C(O)CC(CC(C)C)C(=O)NCc1ccccc1 (some centres unmarked) [Example 78] — 23-fold lower, 0.24 µM
- CC(C)CC(CC(O)[C@H](CC1CCCCC1)NC(=O)OC(C)(C)C)C(=O)N[C@@H](CC(C)C)[C@@H](O)CC(=O)N[C@@H](CC(C)C)C(=O)NCc1ccccc1 (some centres unmarked) [Example 79] — within 1.5-fold, 3.8 µM
- CC(C)CC(=O)N[C@@H](Cc1ccccc1)C(=O)N[C@@H](Cc1c[nH]cn1)C(=O)N[C@@H](CC1CCCCC1)C(O)CCC(=O)NCc1cccc(CN)c1 (some centres unmarked) [Example 80] — 2.7-fold lower, 2.1 µM
- CC(C)CC(=O)N[C@@H](Cc1ccccc1)C(=O)N[C@@H](Cc1c[nH]cn1)C(=O)N[C@@H](CC1CCCCC1)C(O)CC(CC(C)C)C(=O)NCc1cccc(CN)c1 (some centres unmarked) [Example 81] — 100-fold lower, 0.054 µM
- CC(C)CC(=O)N[C@@H](Cc1ccccc1)C(=O)N[C@@H](Cc1c[nH]cn1)C(=O)N[C@@H](CC1CCCCC1)C(O)CCC(=O)N[C@@H](CC(C)C)C(=O)NCc1cccc(CN)c1 (some centres unmarked) [Example 82] — 47-fold lower, 0.12 µM
- CCC(C)CNC(=O)/C=C/C(O)[C@H](Cc1ccccc1)NC(=O)[C@H](Cc1c[nH]cn1)NC(=O)[C@H](Cc1ccccc1)NC(=O)OC(C)(C)C (some centres unmarked) [Example 84, BOC-PHE-HIS-PHE[CHOHCH=CHCO]NHCH2 CH(CH3)CH2 CH3] — 4-fold lower, 1.4 µM
- CCC(C)CNC(=O)CCC(O)[C@H](Cc1ccccc1)NC(=O)[C@H](Cc1c[nH]cn1)NC(=O)[C@H](Cc1ccccc1)NC(=O)OC(C)(C)C (some centres unmarked) [Example 85, BOC-PHE-HIS-PHE[CHOHCH2 ]GLY-NHCH2 CH(CH3)CH2 CH3] — 75-fold lower, 0.075 µM
